Source: patent publication US20100292257A1, “USES OF 2-[PIPERIDINYL] METHYL-2, 3-DIHYDROIMIDAZO [1,2-C] QUINAZOLIN-5 (6H)-ONE FOR PROVIDING AN ANALGESIC EFFECT, ANTI-ALLERGIC EFFECT AND HISTAMINE H1 RECEPTOR ANTAGONISM EFFECT” (Medical and Pharmaceutical Industry Technology and …, priority 2007, published 2010)

Columns and labels:
[1] = test system: CD-1 (Crl.) derived male mice; test: Phenylquinone (PQ)-induced writhing assay; type: in vivo; settings: 1 h before phenylquinone 2 mg/kg i.p., writhes 5th-10th min, vehicle 15.1 ± 1.4
Description: Vehicle (2% Tween 80, 10 ml/kg), PDC-130 or aspirin was orally administered to a group of eight CD-1 (Crl.) derived male mice weighing 24±2 g. One hour later, phenylquinone (2 mg/kg) was given by intraperitoneal injection. […] of animals was observed and recorded during a period of time from the 5th to 10th minutes after PQ administration, [Reference: Siegmund, E, Cadmus, R. and Lu, G. A method for evaluating both non-narcotic and narcotic analgesics. Proc. Soc. Exp. Biol. Med. 952: 729-731, 1957.]

[2] = test system: CD-1 (Crl.) derived male mice; test: Acetic acid-induced writhing assay; type: in vivo; settings: 1 h before acetic acid 0.5%, 20 ml/kg i.p., writhes 5th-10th min, vehicle 12.4 ± 1.5
Description: Vehicle (2% Tween 80, 10 ml/kg), PDC-130 or aspirin (100 mg/kg) was administered orally to groups of eight CD-1 (Crl.) derived male mice, weighing 24±2 g, 1 hour before intraperitoneal injection of acetic acid (0.5%, 20 ml/kg). The number of writhes of animals was observed and recorded during a period of time from the 5th to the 10th minutes period after acetic acid administration. [Reference: Inoue. K., Motonaga, A. and Nishimura, T. Mechanism of antiinflammatory action of etodolac. Arzneim-Forsch./Drug Res. 41: 235-239, 1991.]

Wistar derived male rats = test: Passive cutaneous anaphylaxis; type: in vivo; settings: for Total Score: wheal diameter score, group of five rats, vehicle 50
Description: A group of five Wistar derived male rats weighing 80±20 g was passively sensitized 16 hours earlier by intradermal injection of reaginic antiovalbumin serum (0.5 ml) on two spots of the dorsal surface. […] Within one hour after administration of the above substances, the animals were challenged intravenously with a mixture of ovalbumin (1 mg) and Evans Blue dye (5 mg) and sacrificed 30 minutes later. The two wheal diameters were measured for each animal and scored as follows: • Score 0: diameter<0.05 cm • Score 1: diameter 0.05-0.20 cm • Score 2: diameter 0.2-0.4 cm • Score 3: diameter 0.4-0.6 cm • Score 4: diameter 0.6-0.8 cm • Score 5: diameter>0.8 cm
Maximum possible score for each animal total 5×2=10. [Reference: Goose, J. and Blair, A. M. J. N. Passive cutaneous anaphylaxis in the rat, induced with two homologous reagin-like antibodies and its specific inhibition with disodium chromoglycate. Immunology 16: 749-760, 1969.]
(Total score of vehicle group−Total score of tested group)/(Total score of vehicle group)×100%

Histamine H1 Receptor = target: T1, Histamine H1 Receptor (Rattus norvegicus, UniProt P31390); test: Histamine H1 antagonism (histamine-induced wheal); type: in vivo, rats; settings: for Total Score: 1 h before intradermal histamine, wheal diameter score, group of five rats, vehicle 50; for Inhibition (%): inhibition of histamine-induced blue colored wheal vs vehicle
T1 construct: immediately challenged with two intradermal injection of histamine; from tissue; host or cells: living Wistar derived male rats (skin, intradermal histamine challenge)
T1 sequence (P31390 whole entry): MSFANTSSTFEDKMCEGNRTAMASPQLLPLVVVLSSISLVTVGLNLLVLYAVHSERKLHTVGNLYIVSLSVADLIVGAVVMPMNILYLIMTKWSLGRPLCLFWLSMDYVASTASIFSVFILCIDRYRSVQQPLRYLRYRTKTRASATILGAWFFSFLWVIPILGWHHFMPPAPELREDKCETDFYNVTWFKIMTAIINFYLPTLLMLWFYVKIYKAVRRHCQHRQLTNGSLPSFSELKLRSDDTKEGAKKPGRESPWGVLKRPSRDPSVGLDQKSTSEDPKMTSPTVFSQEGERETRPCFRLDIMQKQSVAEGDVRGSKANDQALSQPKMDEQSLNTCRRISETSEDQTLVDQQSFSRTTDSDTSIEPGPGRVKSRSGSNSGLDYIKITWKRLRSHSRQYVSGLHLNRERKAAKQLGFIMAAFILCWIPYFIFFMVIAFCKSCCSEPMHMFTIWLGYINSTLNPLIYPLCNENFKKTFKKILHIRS
Description: After one hour, animals were injected with Evans Blue dye (5 mg/0.5 ml/rat) intravenously and immediately challenged with two intradermal injection of histamine (each 30 μg/0.05 ml). The animals were sacrificed 30 minutes later. The two wheal diameters were then measured for each animal and scored as follows: • Score 0: diameter<0.05 cm • Score 1: diameter 0.05-0.20 cm • Score 2: diameter 0.2-0.4 cm • Score 3: diameter 0.4-0.6 cm • Score 4: diameter 0.6-0.8 cm • Score 5: diameter>0.8 cm
Maximum possible score for each animal total 5×2=10.

SMILES: CC(=O)Oc1ccccc1C(=O)O [Aspirin, aspirin, reference compound]
- Number of Writhing ([1]; 100 mg/kg orally): 5.5 ± 1.5
- Number of Writhing ([2]; 100 mg/kg orally): 2.4 ± 1.0

SMILES: CN1CCC(=C2c3ccccc3C=Cc3ccccc32)CC1 [Cyproheptadine, cyproheptadine, reference compound]
- Total Score (Wistar derived male rats; 1 mg/kg orally): 14
- inhibition at 1 mg/kg (Wistar derived male rats; Rattus norvegicus, po, 1 mg/kg orally, inhibition of passive cutaneous anaphylaxis blue colored wheal vs vehicle): 72%

SMILES: O=C(c1ccc(F)cc1)C1CCN(CC2CN3C(=O)Nc4ccccc4C3=N2)CC1 (stereo not drawn) [PDC-130, 2-[1-(4-p-fluorobenzoyl)piperidinyl]methyl-2,3-dihydroimidazo[1,2-c]-quinazolin-5(6H)-one]
- Number of Writhing ([1]; 0.03 mg/kg orally): 12.1 ± 1.6
- Number of Writhing ([1]; 0.1 mg/kg orally): 6.4 ± 1.6
- Number of Writhing ([1]; 0.3 mg/kg orally): 5.3 ± 1.7
- Number of Writhing ([1]; 1 mg/kg orally): 2.8 ± 1.2
- Number of Writhing ([2]; 0.03 mg/kg orally): 12.1 ± 1.6
- Number of Writhing ([2]; 0.1 mg/kg orally): 5.0 ± 1.0
- Number of Writhing ([2]; 0.3 mg/kg orally): 5.3 ± 1.1
- Number of Writhing ([2]; 1 mg/kg orally): 2.1 ± 1.1
- Inhibition (%) (Wistar derived male rats; 3 mg/kg orally, inhibition of passive cutaneous anaphylaxis blue colored wheal vs vehicle): 68%
- Total Score (Wistar derived male rats; 3 mg/kg orally): 16
- Inhibition (%) (Wistar derived male rats; 10 mg/kg orally, inhibition of passive cutaneous anaphylaxis blue colored wheal vs vehicle): 80%
- Total Score (Wistar derived male rats; 10 mg/kg orally): 10
- Inhibition (%) (Wistar derived male rats; 30 mg/kg orally, inhibition of passive cutaneous anaphylaxis blue colored wheal vs vehicle): 80%
- Total Score (Wistar derived male rats; 30 mg/kg orally): 10
- Total Score (Histamine H1 Receptor; 3 mg/kg orally): 20
- Inhibition (%) (Histamine H1 Receptor; 3 mg/kg orally): 60%
- Total Score (Histamine H1 Receptor; 10 mg/kg orally): 14
- Inhibition (%) (Histamine H1 Receptor; 10 mg/kg orally): 72%
- Total Score (Histamine H1 Receptor; 30 mg/kg orally): 10
- Inhibition (%) (Histamine H1 Receptor; 30 mg/kg orally): 80%
